Assay results published in ChEMBL document CHEMBL1137327, “Optimization of chromone-2-carboxamide melanin concentrating hormone receptor 1 antagonists: assessment of potency, efficacy, and cardiovascular safety” (J Med Chem, 2006).
The source made the active and inactive calls. The rule behind the calls is not given here.

Experiments:
[1] = molecular target: T1, Melanin-concentrating hormone receptor 1 (Homo sapiens, UniProt Q99705); test: Displacement of [125I]MCH from MCHr1 expressed in IMR32 cells; assay type: cell-based, IMR-32
[2] = molecular target: T1, Melanin-concentrating hormone receptor 1; test: Antagonist activity at MCHr1 assessed as inhibition of MCH-mediated calcium ion release in intact IMR32 cells by FLIPR assay; assay type: functional, cell-based, IMR-32
Mus musculus [3] = test: AUC in C57BL/6J DIO mouse brain at 10 mg/kg, po; assay type: ADME, organism-based; parameters: dose 10 mg/kg, route oral; conditions: in vivo
Rattus norvegicus [4] = test: Drug level in anesthetized Sprague-Dawley rat plasma; assay type: ADME, organism-based; conditions: in vivo
[5] = Half life in C57BL/6J DIO mouse plasma at 10 mg/kg, po; assay type: ADME, organism-based; parameters: dose 10 mg/kg, route oral
Rattus norvegicus [6] = test: Drug level in anesthetized Sprague-Dawley rat brain; assay type: ADME, organism-based; conditions: in vivo
Rattus norvegicus [7] = test: Decrease in heart rate in anesthetized Sprague-Dawley rat at 100 mg/kg; assay type: functional; parameters: scale not given: the % may be the effect or the level left
[8] = AUC in C57BL/6J DIO mouse plasma at 10 mg/kg, po; assay type: ADME, organism-based; parameters: dose 10 mg/kg, route oral
[9] = Cmax in C57BL/6J DIO mouse plasma at 10 mg/kg, po; assay type: ADME, organism-based; parameters: dose 10 mg/kg, route oral; conditions: read-out: Cmax
Rattus norvegicus [10] = test: Decrease in mean arterial pressure in anesthetized Sprague-Dawley rat at 60 mg/kg; assay type: functional, Artery; parameters: scale not given: the % may be the effect or the level left
Rattus norvegicus [11] = test: Decrease in heart rate in anesthetized Sprague-Dawley rat at 60 mg/kg; assay type: functional; parameters: scale not given: the % may be the effect or the level left
Mus musculus [12] = test: Decrease in body weight of C57BL/6J DIO mouse at 30 mg/kg, po after 14 days relative to control; assay type: functional; parameters: scale not given: the % may be the effect or the level left
[13] = Half life in C57BL/6J DIO mouse brain at 10 mg/kg, po; assay type: ADME, organism-based; parameters: dose 10 mg/kg, route oral
[14] = Drug level in C57BL/6J DIO mouse plasma at 10 mg/kg, po after 14 days; assay type: ADME, organism-based; parameters: dose 10 mg/kg, route oral
Mus musculus [15] = test: Decrease in body weight of C57BL/6J DIO mouse at 10 mg/kg, po after 14 days relative to control; assay type: functional; parameters: scale not given: the % may be the effect or the level left
[16] = Drug level in C57BL/6J DIO mouse brain at 30 mg/kg, po after 14 days; assay type: ADME, organism-based; parameters: dose 30 mg/kg, route oral; conditions: read-out: Drug uptake
[17] = Drug level in C57BL/6J DIO mouse brain at 10 mg/kg, po after 14 days; assay type: ADME, organism-based; parameters: dose 10 mg/kg, route oral; conditions: read-out: Drug uptake
[18] = Drug level in C57BL/6J DIO mouse plasma at 30 mg/kg, po after 14 days; assay type: ADME, organism-based; parameters: dose 30 mg/kg, route oral
Mus musculus [19] = test: Decrease in body weight of C57BL/6J DIO mouse at 1 mg/kg, po relative to control; assay type: functional, organism-based; parameters: dose 1 mg/kg
[20] = Ratio of AUC in brain to plasma of C57BL/6J DIO mouse at 10 mg/kg, po; assay type: ADME, organism-based; parameters: dose 10 mg/kg, route oral; conditions: brain and plasma, read-out: Ratio AUC
[21] = Cmax in C57BL/6J DIO mouse brain at 10 mg/kg, po; assay type: ADME, organism-based; parameters: dose 10 mg/kg, route oral
Mus musculus [22] = test: Decrease in food intake of C57BL/6J DIO mouse at 30 mg/kg, po relative to control; assay type: functional; parameters: scale not given: the % may be the effect or the level left
Mus musculus [23] = test: Decrease in body weight of C57BL/6J DIO mouse at 3 mg/kg, po relative to control; assay type: functional, organism-based; parameters: dose 3 mg/kg
Mus musculus [24] = test: Decrease in food intake of C57BL/6J DIO mouse at 10 mg/kg, po relative to control; assay type: functional; parameters: scale not given: the % may be the effect or the level left

T1 sequence (Q99705 whole entry): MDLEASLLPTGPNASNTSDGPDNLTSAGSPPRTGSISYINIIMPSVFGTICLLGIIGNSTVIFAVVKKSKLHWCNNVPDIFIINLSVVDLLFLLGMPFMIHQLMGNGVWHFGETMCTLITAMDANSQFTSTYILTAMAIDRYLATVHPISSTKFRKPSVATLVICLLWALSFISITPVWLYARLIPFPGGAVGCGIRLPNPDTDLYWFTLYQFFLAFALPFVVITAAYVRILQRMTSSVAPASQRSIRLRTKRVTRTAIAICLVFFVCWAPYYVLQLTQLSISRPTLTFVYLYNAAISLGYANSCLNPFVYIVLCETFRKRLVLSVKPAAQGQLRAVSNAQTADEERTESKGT

Row | Structure (SMILES) | IC50 [1] | IC50 [2] | further results
1 | O=C(NC1CCN(Cc2ccc3c(c2)OCO3)CC1)c1cc(=O)c2ccc(C(F)(F)F)cc2o1 | 0.178 µM | 3.07 µM | –
2 | COc1ccc(CN2CCC(NC(=O)c3cc(=O)c4ccc(F)cc4o3)CC2)cc1 | 0.013 µM | 0.101 µM | –
3 | O=C(NC1CCN(Cc2ccc3c(c2)OCO3)CC1)c1cc(=O)c2cc(Cl)ccc2o1 | 0.734 µM | 2.05 µM | –
4 | O=C(NC1CCN(Cc2ccc3c(c2)OCO3)CC1)c1cc(=O)c2ccc(O)cc2o1 | 1.48 µM | > 10 µM | –
5 | O=C(NC1CCN(Cc2ccc3c(c2)OCO3)CC1)c1cc(=O)c2c(Cl)cccc2o1 | 0.024 µM | > 10 µM | –
6 | Cc1ccc2oc(C(=O)NC3CCN(Cc4ccc5c(c4)OCO5)CC3)cc(=O)c2c1 | 0.393 µM | – | –
7 | O=C(NC1CCN(Cc2ccccc2)CC1)c1cc(=O)c2ccc(F)cc2o1 | 0.06 µM | 0.592 µM | –
8 | O=C(NC1CCN(Cc2ccc3c(c2)OCO3)CC1)c1cc(=O)c2cc(Cl)c(Cl)cc2o1 | – | 0.083 µM | AUC (Mus musculus [3]): 0 ng·h/g; Cp (Rattus norvegicus [4]): 20000 ng/mL; half-life [5]: 0.9 h; Drug uptake (Rattus norvegicus [6]): 63 µg/g; Activity (Rattus norvegicus [7]): 10%; AUC [8]: 39 ng·h/mL; Cmax [9]: 33 ng/mL
9 | O=C(NC1CCN(Cc2ccc3c(c2)OCO3)CC1)c1cc(=O)c2cc(C(F)(F)F)ccc2o1 | 0.351 µM | – | –
10 | COc1ccc2c(=O)cc(C(=O)NCC3CCN(Cc4ccc5c(c4)OCO5)C3)oc2c1 (stereo not drawn) | 1.14 µM | 8.3 µM | –
11 | O=C(NC1CCN(Cc2ccc3c(c2)OCO3)CC1)c1cc(=O)c2ccc(Cl)cc2o1 | 0.005 µM | 0.079 µM | –
12 | O=C(NC1CCN(Cc2ccc3c(c2)OCO3)CC1)c1cc(=O)c2cc(F)ccc2o1 | 0.065 µM | 0.196 µM | –
13 | COc1ccc2c(=O)cc(C(=O)NC3CCCN(Cc4ccc5c(c4)OCO5)C3)oc2c1 (stereo not drawn) | > 2 µM | – | –
14 | COc1ccc2c(=O)cc(C(=O)NC3CCC(CNCc4ccc5c(c4)OCO5)CC3)oc2c1 (stereo not drawn) | > 2 µM | – | –
15 | COc1cc2oc(C(=O)NC3CCN(Cc4ccc5c(c4)OCO5)CC3)cc(=O)c2cc1F | 0.002 µM | 0.016 µM | Cp (Rattus norvegicus [4]): 105000 ng/mL; Drug uptake (Rattus norvegicus [6]): 149 µg/g; Activity (Rattus norvegicus [10]): 15.3%; Activity (Rattus norvegicus [11]): <15%
16 | O=C(NC1CCN(Cc2ccc3c(c2)OCO3)CC1)c1cc(=O)c2ccc(OC(F)F)cc2o1 | 0.064 µM | 0.16 µM | –
17 | Cc1c(C(=O)NC2CCN(Cc3ccc4c(c3)OCO4)CC2)oc2cc(Cl)ccc2c1=O | 0.002 µM | 0.067 µM | –
18 | O=C(NC1CCN(Cc2cc3c(cc2Cl)OCO3)CC1)c1cc(=O)c2ccc(F)cc2o1 | 0.022 µM | 0.266 µM | –
19 | O=C(NC1CCN(Cc2ccc3c(c2)OCO3)CC1)c1cc(=O)c2c(Cl)c(Cl)ccc2o1 | 0.075 µM | 4.75 µM | –
20 | COc1ccc2c(=O)cc(C(=O)NC3CCN(Cc4ccc5c(c4)OCO5)CC3)oc2c1 | 0.011 µM | 0.073 µM | AUC (Mus musculus [3]): 4398 ng·h/g; Activity (Mus musculus [12]): 15.9%; half-life [13]: 4.9 h; concentration at 336 h [14]: 10100 ng/mL; Cp (Rattus norvegicus [4]): 29000 ng/mL; Activity (Mus musculus [15]): 7.3%; concentration at 336 h [16]: 27100 ng/g; half-life [5]: 3.1 h; concentration at 336 h [17]: 4900 ng/g; Drug uptake (Rattus norvegicus [6]): 158 µg/g; concentration at 336 h [18]: 32900 ng/mL; Activity (Mus musculus [19]): inactive; Kp [20]: 0.24; Cmax [21]: 548 ng/g; Activity (Mus musculus [22]): 37%; Activity (Mus musculus [23]): inactive; Activity (Mus musculus [24]): 16%; Cmax [9]: 3600 ng/mL
21 | O=C(NC1CCN(Cc2ccc3c(c2)OCO3)CC1)c1cc(=O)c2cc(F)cc(F)c2o1 | 0.099 µM | 2.72 µM | –
22 | N#Cc1ccc2c(=O)cc(C(=O)NC3CCN(Cc4ccc5c(c4)OCO5)CC3)oc2c1 | 0.047 µM | 0.137 µM | –
